Series [1] deals with rabbit skeletal muscle filamentous actin (F-actin) (rabbit) (UniProt P68135). Kind of series: co-sedimentation; F-actin 200 nM; occidiofungin 25 to 25,600 nM or phalloidin 25 to 800 nM; 5 mM Tris-HCl pH 8.0, 0.2 mM ATP, 2 mM MgCl2; 30 min at room temperature; 100,000 rpm, 4°C, 20 min; free and bound ligand quantified by mass spectrometry; Langmuir isotherm; macroscopic Kd.
The target is the same in series [2]. Put plainly: co-sedimentation.
For series [3] the following is noted: at doses required for efficacious effect; cited from earlier work. The method, then: Natural products with in vitro antifungal properties that target the actin cytoskeleton were previously reported ([51]). […] Occidiofungin, on the other hand, is well tolerated at 5 mg/kg or 20 mg/kg when administered intravenously or subcutaneously, respectively ([22], [25]). This dose is much higher than the MIC of occidiofungin against several fungal pathogens. ...

In series [4] the test system is Candida albicans strain ATCC 66027. The note with it: cited from earlier work. How it is done:
Therefore, additional studies related to the perturbation of actin-based functions were performed to confirm that actin was the biological target of occidiofungin. As a dimorphic fungus, C. albicans can grow as a yeast or hypha, and the ability to switch between these forms is linked to the pathogenicity of the organism ([29]). Several reports have established that actin cables play an important role in the switch between yeast and hyphal forms ([30], [31]). The impact of ...

The subject of the next series is Candida krusei 9541. Put plainly: MIC susceptibility testing. It counts as cell-based. The note with it: Pichia kudriavzevii, 9541; CLSI M27-A3; read-out: Fluconazole MIC. How it is done:
(§1) Occidiofungin was purified from a liquid culture of Burkholderia contaminans MS14 as previously described ([21]). MIC susceptibility testing was performed according to the CLSI M27-A3 and M38-A2 standards for the susceptibility testing of yeasts and filamentous fungi, respectively. S. cerevisiae deletion mutants were obtained from the commercially available BY4741 deletion library (Thermo Scientific).

In a further series the test system is Candida albicans 28102. Kind of series: MIC susceptibility testing. The series is classed as cell-based. The note with it: Candida albicans, 28102; CLSI M27-A3; read-out: Fluconazole MIC. How it is done: as §1
Series [5] deals with Candida parapsilosis 28174. Put plainly: MIC susceptibility testing. It counts as cell-based. The note with it: Lodderomyces parapsilosis, 28174; CLSI M27-A3; read-out: Fluconazole MIC. The method, then: as §1
For series [6], the system named is Cryptococcus neoformans 28446. Kind of series: MIC susceptibility testing. The series is classed as cell-based. The conditions noted are these: Cryptococcus neoformans, 28446; CLSI M27-A3; read-out: Fluconazole MIC. How it is done: as §1
A further series relates to Candida glabrata 25742. Put plainly: MIC susceptibility testing. It counts as cell-based. The conditions noted are these: Nakaseomyces glabratus, 25742; CLSI M27-A3; read-out: Fluconazole MIC. How it is done: as §1
In series [7] the test system is Cryptococcus neoformans 27708. Put plainly: MIC susceptibility testing. It counts as cell-based. The note with it: Cryptococcus neoformans, 27708; CLSI M27-A3; read-out: Fluconazole MIC. The method, then:
as §1

The test system of the next series is Candida tropicalis 9624. Put plainly: MIC susceptibility testing. The series is classed as cell-based. The conditions noted are these: Candida tropicalis, 9624; CLSI M27-A3; read-out: Fluconazole MIC. The method, then:
as §1

The next series concerns Candida tropicalis 28478. Kind of series: MIC susceptibility testing. The series is classed as cell-based. The conditions noted are these: Candida tropicalis, 28478; CLSI M27-A3; read-out: Fluconazole MIC. How it is done:
as §1

Series [8] deals with Trichophyton rubrum 28659. Put plainly: MIC susceptibility testing. It counts as cell-based. The note with it: Trichophyton rubrum, 28659; CLSI M38-A2; read-out: Fluconazole MIC. The method, then: as §1
Another series relates to Candida tropicalis 28272. Kind of series: MIC susceptibility testing. It counts as cell-based. The note with it: Candida tropicalis, 28272; CLSI M27-A3; read-out: Fluconazole MIC. How it is done:
as §1

The test system of series [9] is Trichophyton mentagrophytes 28641. Kind of series: MIC susceptibility testing. The note with it: Trichophyton mentagrophytes, 28641; CLSI M38-A2; read-out: Fluconazole MIC. The series is classed as cell-based. How it is done: as §1
Series [10] relates to Trichophyton rubrum 28658. Kind of series: MIC susceptibility testing. The note with it: Trichophyton rubrum, 28658; CLSI M38-A2; read-out: Fluconazole MIC. The series is classed as cell-based. The method, then: as §1
In another series the test system is Candida glabrata 28271. Put plainly: MIC susceptibility testing. It counts as cell-based. The note with it: Nakaseomyces glabratus, 28271, read-out: Fluconazole MIC. The method, then: as §1
Another series concerns Candida albicans 28200. Put plainly: MIC susceptibility testing. It counts as cell-based. The conditions noted are these: Candida albicans, 28200; CLSI M27-A3; read-out: Fluconazole MIC. The method, then: as §1
A further series has as its system Candida krusei 28570. Kind of series: MIC susceptibility testing. It counts as cell-based. The note with it: Pichia kudriavzevii, 28570; CLSI M27-A3; read-out: Fluconazole MIC. The method, then:
as §1

In series [11] the test system is Candida parapsilosis 28364. Put plainly: MIC susceptibility testing. It counts as cell-based. The conditions noted are these: Lodderomyces parapsilosis, 28364; CLSI M27-A3; read-out: Fluconazole MIC. The method, then:
as §1

Series [12] deals with Trichophyton mentagrophytes 28556. Kind of series: MIC susceptibility testing. It counts as cell-based. The note with it: Trichophyton mentagrophytes, 28556; CLSI M38-A2; read-out: Fluconazole MIC. How it is done:
as §1

Series [13] concerns Trichophyton mentagrophytes 10207. Put plainly: MIC susceptibility testing (itraconazole-resistant strain). The conditions noted are these: Trichophyton mentagrophytes, 10207; CLSI M38-A2; read-out: Fluconazole MIC. It counts as cell-based. How it is done:
as §1

Series [14] deals with Trichophyton rubrum 11199. Put plainly: MIC susceptibility testing (terbinafine-resistant strain). It counts as cell-based. The note with it: Trichophyton rubrum, 11199; CLSI M38-A2; read-out: Fluconazole MIC. The method, then: as §1
In another series the test system is Candida krusei 28415. Put plainly: MIC susceptibility testing (fluconazole-resistant strain). It counts as cell-based. The conditions noted are these: Pichia kudriavzevii, 28415; CLSI M27-A3. How it is done:
as §1

For another series, the system named is Candida albicans 23512. Described as above. It counts as cell-based. The note with it: Candida albicans, 23512; CLSI M27-A3. How it is done: as §1
In another series the test system is Candida glabrata 27243. The series is described as above. It counts as cell-based. The note with it: Nakaseomyces glabratus, 27243; CLSI M27-A3. How it is done: as §1
The subject of series [15] is Cryptococcus neoformans 19526. Put plainly: MIC susceptibility testing (caspofungin-resistant strain). The series is classed as cell-based. The conditions noted are these: Cryptococcus neoformans, 19526; CLSI M27-A3; read-out: Fluconazole MIC. How it is done:
as §1

The subject of series [16] is Candida parapsilosis 2006. The series is described as above. It counts as cell-based. The note with it: Lodderomyces parapsilosis, 2006; CLSI M27-A3; read-out: Fluconazole MIC. The method, then:
as §1

This is an account of results in PMC6325233, “A Novel Actin Binding Drug with In Vivo Efficacy” (Antimicrobial Agents and Chemotherapy, 2018).

≈ marks a conversion by molar mass, not a printed value.

Phalloidin (peptide): in series [1], the Kd was found to be 8 nM and the stoichiometry N (phalloidin per actin monomer) was determined as 0.6.

With Occidiofungin (peptide), in series [2], the Kd came to 1000 nM and the stoichiometry N (occidiofungin per actin monomer) turned out to be 24.

`COC(CC1OC(=O)CC(O)C/C=C/C(=O)C(C)C(OC)c2coc(n2)-c2coc(n2)-c2coc(n2)/C=C/CCC1C)C(C)CCC(=O)C(C)C(C/C=C/N(C)C=O)OC` (centres unmarked) [halichondramide]: the toxicity in animals entry in [3] is “limited by their toxicity in animals”.

For the compound `C/C1=C/C(=O)O[C@@H]2C[C@@H](CC[C@H](C)/C=C\C=C\CC1)O[C@@](O)([C@@H]1CSC(=O)N1)C2` [latrunculin A], the “effect on hyphal formation” value in [4] was “prevent hyphal formation”.

For `C=C1[C@@H](C)[C@H]2[C@H](Cc3ccccc3)NC(=O)[C@]23OC(=O)/C=C/C(=O)CCC[C@@H](C)C/C=C/[C@H]3[C@@H]1O` [cytochalasin A], the “effect on hyphal formation” value in [4] is reported as “prevent hyphal formation”.

Take `OC(Cn1cncn1)(Cn1cncn1)c1ccc(F)cc1F` [Fluconazole, fluconazole, reference compound]: the MIC with Candida krusei 9541 is 16 µg/mL (≈ 52.2 µM); in the series with Candida albicans 28102 it was 0.125 µg/mL (≈ 0.408 µM); in [5], 0.25 µg/mL (≈ 0.816 µM); in [6], 4 µg/mL (≈ 13.1 µM); in the series on Candida glabrata 25742 it was 4 µg/mL (≈ 13.1 µM); in series [7] it was 2 µg/mL (≈ 6.53 µM). For the same compound, the MIC in the series with Candida tropicalis 9624 came out at 0.25 µg/mL (≈ 0.816 µM); with Candida tropicalis 28478, 0.125 µg/mL (≈ 0.408 µM); in series [8] it was 2 µg/mL (≈ 6.53 µM); in the series on Candida tropicalis 28272, 0.125 µg/mL (≈ 0.408 µM); in [9], 16 µg/mL (≈ 52.2 µM); in series [10] it was 2 µg/mL (≈ 6.53 µM). Further, the MIC is greater than 64 µg/mL with Candida glabrata 28271; 8 µg/mL (≈ 26.1 µM) with Candida albicans 28200; 16 µg/mL (≈ 52.2 µM) with Candida krusei 28570; 0.25 µg/mL (≈ 0.816 µM) in series [11]; greater than 16 µg/mL in [12]; greater than 16 µg/mL in series [13]. In addition, the MIC came out at 0.25 µg/mL (≈ 0.816 µM) in series [14]; 64 µg/mL (≈ 209 µM) against Candida krusei 28415; 32 µg/mL (≈ 104 µM) in the series on Candida albicans 23512; 64 µg/mL (≈ 209 µM) in the series with Candida glabrata 27243; 4 µg/mL (≈ 13.1 µM) in [15]; 0.125 µg/mL (≈ 0.408 µM) in series [16].

In the case of jasplakinolide, in [3], the toxicity in animals result was “limited by their toxicity in animals”.

Broadly, the Kd is a measure of binding affinity in units of concentration. Usually MIC stands for the lowest concentration that inhibits growth of the organism.
